US20100062462A1, “IMMUNODEFICIENCY VIRUSES” (priority 2005, published 2010)

Legend:
HIV protease = target: T1, HIV protease (Human immunodeficiency virus type 1 group M subtype B, UniProt P04585); experiment: casp8p41 production in Jurkat T cells transfected with HIV protease, flow cytometry; format: cell-based; settings: Jurkat T cells transfected with pEYFP-protease; 7 μM Nelfinavir or 20 μM Z-VAD-fmk added immediately following transfection; assessed the following morning
T1 construct: Jurkat T cells were transfected with 1 μg of pEYFP-protease per 10^7 cells; EYFP; expressed in transfected cells; host or cells: Jurkat T cells
Procedure: To determine whether casp8p41 is produced specifically as a consequence of HIV-PR activity, as opposed to being produced as a consequence of apoptotic processing of procaspase 8, casp8p41 expression was assessed following HIV-PR transfection in the presence or absence of HIV-PR inhibitor, Nelfinavir, or the pan-caspase inhibitor, z-VAD-fmk. Jurkat T cells were transfected with 1 μg of pEYFP-protease per 10^7 cells using a square wave electroporator (BTX) at 320 V for 10 msec. Immediately following transfection, 7 μM Nelfinavir or 20 μM Z-VAD-fmk was added. The following morning, casp8p41 was assessed by flow cytometry.

Jurkat T cells = experiment: active caspase-3 and casp8p41 in Jurkat T cells treated with apoptotic stimuli, flow cytometry; format: cell-based; settings: for casp8p41 immunoreactivity: same stimuli, 10 μM campothecin for 8 hours; for apoptosis, as determined by activation of caspase-3: 50 ng/mL TNF-α plus 5 μg/mL cycloheximide, 100 ng/mL SuperKillerTRAIL, 250 ng/mL anti-Fas CH-11, 2 μM Tat, 1 μg/mL gp120 for 8 hours, 10 μM Vpr-derived peptide 4 hours
Procedure: It was determined whether casp8p41 is generated in response to other apoptotic stimuli. Jurkat T cells (10^6) were treated with 10 μM campothecin, 100 ng/mL SuperKillerTRAIL™ (Axxora), 250 ng/mL anti-Fas antibody CH-11 (Upstate Cell Signaling Solutions), 50 ng/mL TNF-α (R&D Systems) plus 5 μg/mL cycloheximide, 2 μM HIV Tat (NIH AIDS Research and Reference Reagent Program), 1 μg/mL of HIV gp120 (ImmunoDiagnostic), or vehicle controls for 8 hours at 37° C. For Vpr-induced apoptosis, Jurkat T cells were incubated with isotonic glucose-Hepes buffer (2.4% glucose, 13 mM Hepes, 68 mM NaCl, 1.3 mM KCl, 4 mM Na2HPO4, and 0.7 mM KH2PO4, pH 7.2) alone or containing 10 μM of Vpr-derived peptide (amino acids 61-75; NIH AIDS Research and Reference Reagent Program) for 4 hours at 37° C. After the incubation, cells were washed in PBS and incubated overnight at 37° C. After incubation for the indicated times, cells were fixed in 2% paraformaldehyde at 4° C. overnight. To determine the presence of casp8p41 on apoptotic cells, cells were permeabilized with PBS+0.1% NP-40 on ice for two minutes. Cells were then incubated with the mouse anti-casp8p41 antibody, followed by PE-labeled goat anti-mouse antibody (Becton Dickinson ImmunoCytochemistry) and FITC-labeled rabbit anti-active caspase-3 antibody.

| Molecule | casp8p41 production (HIV protease) | casp8p41 immunoreactivity (Jurkat T cells) | apoptosis, as determined by activation of caspase-3 (Jurkat T cells) |
| --- | --- | --- | --- |
| Cc1c(O)cccc1C(=O)N[C@@H](CSc1ccccc1)[C@H](O)CN1C[C@H]2CCCC[C@H]2C[C@H]1C(=O)NC(C)(C)C [Nelfinavir] | abrogated casp8p41 production | – | – |
| CC[C@@]1(O)C(=O)OCc2c1cc1n(c2=O)Cc2cc3ccccc3nc2-1 [campothecin] | – | casp8p41 was not produced | – |
| TNF-α | – | did not generate casp8p41 immunoreactivity | did indeed induce apoptosis |
| TRAIL | – | did not generate casp8p41 immunoreactivity | did indeed induce apoptosis |
| Z-VAD-fmk | did not alter casp8p41 production | – | – |
